Laboratory results as given in US20140228248A1, “METHODS AND COMPOSITIONS FOR DETECTING INFECTIONS” (BIOMED VALLEY DISCOVERIES, INC., priority 2011, published 2014).

Key:
DH5α E. coli = experiment: Live cell filter assay in culture media (Millipore NCM filter, scintillation counter); format: cell-based; conditions: for cell based signal over background signal: 10,000 cells incubated for 8 hours, Millipore NCM filter
Method: 10,000 cells were put into 2 ml of media (LB, SOB, SOC, DeTox™, or TB), and incubated for 8 hours at 37° C. and shaken at 250 rpm. The samples were then passed through the respective filters (Millipore and others) via a syringe, then the samples were washed with 40 ml of PBS via a syringe. The filter samples were counted using a scintillation counter.
Millipore NCM filters were also used in the live cell experiments. […] Moreover, LB and SOB media strongly potentiated the growth of the DH5α E. coli. The cell based signals are 42.78-fold and 82.63-fold, respectively, over background signal for these two media.
10,000, 50,000 or 100,000 DH5α cells were added into 1 ml SOB media, and 1 μl of 1.76 mM ^14C FIAU was added to the mixture to constitute a 1.76 μM solution. The mixture was incubated for 4 to 6 hours at 37° C. in an agitation incubator. After the incubation period, the mixture was passed through a 0.22 μm Millipore nitrocellulose filter. The filter was then washed with 40 ml of 1×PBS using a syringe. The CPM was determined using a scintillation counter.

DH5α (E. coli) cells = experiment: Detection of cells spiked into human urine / SOB mix (filter assay); format: cell-based; conditions: 10,000 DH5α cells, 50% urine and 50% SOB mix, 1.76 μM, 5 hours
Method: In another set of experiments, 10,000 DH5α cells were added into 1 ml human urine. 1 ml of SOB media and 2 μl of 1.76 mM ^14C FIAU was added to the mixture to constitute a 1.76 μM solution. The mixture was incubated for 5 hours at 37° C. in an agitation incubator. After the incubation period, the mixture was passed through a 0.22 μm Millipore nitrocellulose filter. The filter was then washed with 40 ml of 1×PBS using a syringe. The CPM was determined using a scintillation counter. Thus, 10,000 DH5α (E. coli) cells were detectable in a 50% urine and 50% SOB mix in 5 hours.

DH5α cells = experiment: Detection of cells spiked into rat CSF / SOB mix (filter assay); format: cell-based, E. coli; conditions: 10,000 cells, 50% CSF (rat) and 50% SOB, 1.76 μM, 5 hours or less
Method: An experiment was also performed to determine whether a shorter incubation period is possible. 10,000 DH5α cells were added into 1 ml rat CSF. 1 ml of SOB media and 2 μl of 1.76 mM ^14C FIAU was added to the mixture to constitute a 1.76 μM solution. The mixture was incubated for 5 hours at 37° C. in an agitation incubator. After the incubation period, the mixture was passed through a 0.22 μm Millipore nitrocellulose filter. The filter was then washed with 40 ml of 1×PBS using a syringe. The CPM was determined using a scintillation counter. Thus, 10,000 cells after 5 hours or less of incubation in a mixture containing 50% CSF and 50% SOB were detectable.

Row | SMILES | cell based signal over background signal (DH5α E. coli; LB media) [fold] | cell based signal over background signal (DH5α E. coli; SOB media) [fold] | signal versus background (DH5α E. coli; 10,000 DH5α cells, 1 ml SOB, 1.76 μM (200 mCi/mmol), about 4 hours) | detectability of cells (DH5α (E. coli) cells) | detectability of cells (DH5α cells)
1 | O=c1[nH]c(=O)n([C@@H]2O[C@H](CO)[C@@H](O)[C@@H]2F)cc1I [FIAU, 2′-fluoro-5-iodo-1-β-D-arabinofuranosyluracil] | 42.78 | 82.63 | – | – | –
2 | O=c1[nH][14c](=O)n([C@@H]2O[C@H](CO)[C@@H](O)[C@@H]2F)cc1I [^14C-FIAU, ^14C-labeled 2′-fluoro-5-iodo-1-β-D-arabinofuranosyluracil] | – | – | signal above the background | detectable | detectable
